From US4865991A, “Methods for partitioning of organic flavor compounds” (priority 1987, dated 1989)
Like-named read-outs stand apart in the source and are kept apart here.

Key:
[1] = HPLC determination of partition coefficients in acetonitrile phase systems
Description: In these tests, known organic flavor volatile compounds were added to 2 ml aliquots of 50:50 acetonitrile:water, 22° C., in 4 ml HPLC vials, mixed thoroughly and capped with polytetrafluoroethylene septum caps. […] The samples were injected (20 uL) into a continuous HPLC apparatus. […] The HPLC apparatus was a Waters WISP model 710B sample injector, 6000A pump, and 481 UV detector set at 210 nm (Waters Associates, Milford, MA). A Radiomatic Flo-One Beta unit was used for peak integration (Radiomatic Instruments, Inc., Tampa FL). An Alltech adsorbosphere C18 column, 5 micron, 250 mm×4.6 mm was used (Alltech Associates, Deerfield, IL) to achieve component separation in accordance with conventional HPLC processing. The mobile phase had the following composition: 45% acetonitrile, 55% water, 0.2% KH2 PO4, pH 3.0. The flow rate was 1.0 ml/minute. The vials were then placed in a freezer (-20° C.) for one hour. 250 uL of the resulting organic and aqueous phases were then placed in a limited volume insert vial, the sample injected and peak integrations acquired. The partition coefficient, P, was calculated by dividing the organic phase by the aqueous phase integration values.
To determine the time period appropriate for complete partitioning, four sulfur volatiles and 1-methionine were treated as above, except that samples were taken at different times up to 60 minutes FIGS. 2a, 2b and 3).

[2] = Binary acetonitrile/water cold phase extraction of caffeine from cola beverage; type: physicochemical; details: cola plus acetonitrile, -20° C. for 1 hour
Description: […]. The sample was shaken for 20 seconds and was chilled to -20° C. for 1 hour. 0.3 ml of the organic layer was then placed in an HPLC sampling vial. The HPLC system used was: a phenyl reversed phase column (Alltech Associates, Deerfield, Ill.) 250×4.6 mm, 5 micron. 25% acetonitrile, 75% water 0.2% w/v KH2 PO4, pH 3.0 mobile phase, 1.5 ml/min. flow rate 20 uL injection by the autosampler. UV detection at 210 nm.

[3] = Acetonitrile/water 1:1, 1 hr. at -20° C., organic phase divided by aqueous phase integration values
[4] = Acetonitrile/water/chloroform 5:5:1, 22° C., organic phase divided by aqueous phase integration values

Structure (SMILES) | Partition Coefficient Binary [1, 3] | Partition Coefficient Ternary [1, 4] | Partition Coefficient Ternary [1] | Partition Coefficient Binary ([1]; 60 min) | extraction into the organic phase [2]
N[C@@H](Cc1ccccc1)C(=O)O [1-phenylalanine] | 0.1 | 0.3 |  |  | 
CCCC(=O)OCC [Ethyl Butyrate] |  |  | 17.6 | 14.3 | 
CSCC[C@H](N)C(=O)O [1-methionine] | 0.03 | 0.2 |  |  | 
OCCc1ccccc1 [2-phenyl ethanol] |  |  | 2.3 | 3.3 | 
O=C1O[C@H]([C@@H](O)CO)[C@@H](O)[C@@H]1O [1-galactono-1,4-lactone] |  |  | 0.2 | 0.2 | 
Cn1c(=O)c2c(ncn2C)n(C)c1=O [Caffeine] |  |  |  |  | selectively extracted into the organic phase
CCCCCCCC(=O)O [Caprylic acid] | 20.8 | 20.6 |  |  | 
S [Hydrogen sulfide] | 4.6 | 5.2 |  |  | 
CSC [Dimethyl sulfide] |  |  | 6.6 | 5.2 | 
CCCCC(=O)OCC [Ethyl Valerate] | 25.9 | 25.6 |  |  | 
